# According to patent EP0297661B1, “[(Bicyclic heterocyclyl)methyl and -hetero] substituted hexahydro-1H-azepines and pyrrolidines” (JANSSEN PHARMACEUTICA N.V., priority 1987, dated 1989):
# System: compound 48/80-induced lethality
# Assay: Protection of rats from compound 48/80-induced lethality
# Type: in vivo
# Settings: Rattus norvegicus; male Wistar rats; test compound subcutaneously or orally (route per compound not stated); one hour later compound 48/80 0.5 mg/kg intravenously; dose protecting 50% of animals, survival after 4 hours; read-out: compound 48/80 lethality test in rats-ED₅₀ in mg/kg body weight
# From the text: Protection of rats from compound 48/80-induced lethality.
# Compound 48/80, a mixture of oligomers obtained by condensation of 4-methoxy-N-methylbenzeneethanamine and formaldehyde has been described as a potent histamine releasing agent (Int. Arch. Allergy, 13, 336 (1958)). The protection from compound 48/80-induced lethal circulatory collapse appears to be simple way of evaluating quantitatively the antihistaminic activity of test compounds. Male rats of an inbred Wistar strain, weighing 240-260 g were used in the experiment. After overnight starvation the rats were transferred to conditioned laboratories (temp. = 21 ± 1°C, relative humidity = 65 ± 5%). The rats were treated subcutaneously or orally with a test compound or with the solvent (NaCl solution, 0.9%). One hour after treatment there was injected intravenously compound 48/80, freshly dissolved in water, at a dose of 0.5 mg/kg (0.2 ml/100 g of body weight). In control experiments, wherein 250 solvent-treated animals were injected with the standard dose of compound 48/80, not more than 2.8% of the animals survived after 4 hours. Survival after 4 hours is therefore considered to be a safe criterion of a protective effect of drug administration. Said ED₅₀-values are the values in mg/kg body weight at which the tested compounds protect 50% of the tested animals against […] lethality.
row,SMILES,ED50 [mg/kg]
1,"c1coc(Cn2c(NC3CCCNCC3)nc3cccnc32)c1 (centres unmarked) [compound 49, 3-(2-furanylmethyl)-N-(hexahydro-1H-azepin-4-yl)-3H-imidazo[4,5-b]pyridin2-amine]",0.04
2,COc1ccc(CCN2CCC(Nc3nc4cccnc4n3Cc3ccccn3)C2)cc1 (centres unmarked) [compound 61],0.08
3,COc1ccc(CCN2CCCC(Nc3nc4cccnc4n3Cc3ccc(C)o3)CC2)cc1 (centres unmarked) [compound 68],0.04
4,Cc1ccc(Cn2c(NC3CCN(CCc4c(C)nc5ccccn5c4=O)C3)nc3cccnc32)o1 (centres unmarked) [compound 94],0.04
5,Cc1nc2ccccn2c(=O)c1CCN1CCC(Nc2nc3cccnc3n2Cc2cscn2)C1 (centres unmarked) [compound 95],0.04
6,Cc1ccc(Cn2c(NC3CCN(CCc4c(C)nc5ccccn5c4=O)C3)nc3ccccc32)o1 (centres unmarked) [compound 96],0.04
7,Cc1nc2n(c(=O)c1CCN1CCC(Nc3nc4cccnc4n3Cc3ccccn3)C1)CCCC2 (centres unmarked) [compound 99],0.04
8,Cc1ccc(Cn2c(NC3CCN(CCc4c(C)nc5n(c4=O)CCCC5)C3)nc3ccccc32)o1 (centres unmarked) [compound 102],0.04
9,"O=c1oc2ccccc2cc1CCN1CCCC(Nc2nc3cccnc3n2Cc2ccco2)CC1 (centres unmarked) [compound 109, 3-[2-[4-[[3-(2-furanylmethyl)-3H-imidazo[4,5-b]pyridin-2-yl]-amino]hexahydro-1H-azepin-1-yl]ethyl]-2H-1-benzopyran-2-one]",0.04
10,"O=c1[nH]c2ccccc2n1CCN1CCC(Nc2nc3ccccc3n2Cc2ccc(F)cc2)C1 (centres unmarked) [compound 125, 1-[2-[3-[[1-[(4-fluorophenyl)methyl]-1H-benzimidazol-2-yl]amino]-1-pyrrolidinyl]ethyl]-1,3-dihydro-2H-benzimidazol-2-one]",0.08
11,"Fc1ccc(Cn2c(NC3CCN(CCNc4ncccn4)C3)nc3ccccc32)cc1 (centres unmarked) [compound 166, 1-[(4-fluorophenyl)methyl]-N-[1-[-(2-pyrimidinylamino)ethyl]-3-pyrrolidinyl]-1H-benzimidazol-2-amine]",0.08
12,"Fc1ccc(Cn2c(NC3CCN(CCNc4nccs4)C3)nc3ccccc32)cc1 (centres unmarked) [compound 168, 1-[(4-fluorophenyl)methyl]-N[1-[2-(2-thiazolylamino)ethyl]-3-pyrrolidinyl]-1H-benzimidazol-2-amine]",0.08
13,c1csc(Cn2c(NC3CCN(CCNc4nc5cnccc5[nH]4)C3)nc3ccccc32)c1 (centres unmarked) [compound 186],0.01
14,"Cc1ccc(Cn2c(NC3CCN(CCNc4nc5cnccc5[nH]4)C3)nc3cccnc32)o1 (centres unmarked) [compound 187, N-[1-[2-[(1H-imidazo[4,5-c]pyridin-2-yl)amino]ethyl]-3-pyrrolidinyl]-3-[(5-methyl-2-furanyl)methyl]-3H-imidazo[4,5-b]pyridin-2-amine]",0.04
15,"CNC(=O)NCCN1CCC(Nc2nc3ccccc3n2Cc2ccc(F)cc2)C1 (centres unmarked) [compound 188, N-[2-[3-[[1-[(4-fluorophenyl)methyl]-1H-benzimidazol-2-yl]amino]-1-pyrrolidinyl]ethyl]-N′-methylurea]",0.01
16,"CN1CCCC(Nc2nc3cccnc3n2Cc2ccco2)CC1 (centres unmarked) [compound 196, 3-(2-furanylmethyl)-N-(hexahydro-1-methyl-1H-azepin-4-yl)-3H-imidazo[4,5-b]-pyridin-2-amine]",0.02
17,"Cc1ccc(Cn2c(NC3CCCN(C)CC3)nc3ccccc32)o1 (centres unmarked) [compound 198, N-(hexahydro-1-methyl-1H-azepin-4-yl)-1-[(5-methyl-2-furanyl)methyl]-1H-benzimidazol-2-amine]",0.04
18,"CC(C)N1CCC(Nc2nc3ccccc3n2Cc2ccc(F)cc2)C1 (centres unmarked) [compound 204, 1-[(4-fluorophenyl)methyl]-N-[1-(1-methylethyl)-3-pyrrolidinyl]-1H-benzimidazol-2-amine]",0.04
19,"Cc1ccc(Cn2c(NC3CCCN(C)CC3)nc3cccnc32)o1 (centres unmarked) [compound 207, N-(hexahydro-1-methyl-1H-azepin-4-yl)-3-[(5-methyl-2-furanyl)methyl]-3H-imidazo[4,5-b]pyridin-2-amine]",0.01
20,"Cc1ccc(Cn2c(NC3CCCN(CCO)CC3)nc3ccccc32)o1 (centres unmarked) [compound 211, hexahydro-4-[[1-[(5-methyl-2-furanyl)methyl]-1H-benzimidazol-2-yl]amino]-1H-azepine-1-ethanol]",0.04
